According to patent US20250270172A1, “Pyrimidine Derivatives As Modulators of the 5-HT2A Serotonin Receptor Useful For The Treatment of Disorders Related Thereto” (Arena Pharmaceuticals, Inc., priority 2020, published 2025):
pKi: −log10 of the molar value.

Target: 5-HT2A (Homo sapiens (Human), UniProt P28223)
Assay: Radioligand binding assay, [^3H]5-HT competition, 5-HT2A
Settings: [^3H]5-HT radioligand, membranes of HEK293 cells expressing recombinant 5-HT2A; Ki from IC50 by Cheng-Prusoff; read-out: 5-HT2A serotonin binding Ki value

Chain of 5-HT2A (P28223 whole entry): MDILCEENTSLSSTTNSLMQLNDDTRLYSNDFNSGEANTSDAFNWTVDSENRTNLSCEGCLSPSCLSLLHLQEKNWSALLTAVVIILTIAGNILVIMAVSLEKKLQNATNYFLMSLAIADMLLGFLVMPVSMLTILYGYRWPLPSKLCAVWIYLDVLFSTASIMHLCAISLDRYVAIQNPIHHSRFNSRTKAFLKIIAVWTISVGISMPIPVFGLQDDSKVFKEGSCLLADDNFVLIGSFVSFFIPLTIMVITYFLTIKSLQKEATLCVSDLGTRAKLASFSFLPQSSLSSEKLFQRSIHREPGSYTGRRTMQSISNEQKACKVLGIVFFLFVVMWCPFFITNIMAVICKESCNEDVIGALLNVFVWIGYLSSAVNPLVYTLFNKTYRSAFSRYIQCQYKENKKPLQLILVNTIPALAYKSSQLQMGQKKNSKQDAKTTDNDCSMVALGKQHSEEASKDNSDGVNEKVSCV

Compound	pKi
Cc1ncnc(C)c1-c1cc(NC(=O)C2CC2)ccc1OCCN(C)C1CCC1 [Compound 369, N-(4-(2-(cyclobutyl(methyl)amino)ethoxy)-3-(4,6-dimethylpyrimidin-5-yl)phenyl)cyclopropanecarboxamide]	7.29
CCN(CC)CCOc1ccc(NC(=O)C2CC2)cc1-c1c(C)ncnc1C [Compound 370, N-(4-(2-(diethylamino)ethoxy)-3-(4,6-dimethylpyrimidin-5-yl)phenyl)cyclopropanecarboxamide]	7.10
COCCNCCOc1ccc(NC(=O)c2ccccc2)cc1-c1c(C)ncnc1C [Compound 371, N-(3-(4,6-dimethylpyrimidin-5-yl)-4-(2-((2-methoxyethyl)amino)ethoxy)phenyl)benzamide]	8.32
COCCNCCOc1ccc(NC(=O)c2cccc(OC)c2)cc1-c1c(C)ncnc1C [Compound 372, N-(3-(4,6-dimethylpyrimidin-5-yl)-4-(2-((2-methoxyethyl)amino)ethoxy)phenyl)-3-methoxybenzamide]	8.70
COCCNCCOc1ccc(NC(=O)c2cccc(F)c2)cc1-c1c(C)ncnc1C [Compound 373, N-(3-(4,6-dimethylpyrimidin-5-yl)-4-(2-((2-methoxyethyl)amino)ethoxy)phenyl)-3-fluorobenzamide]	8.76
COCCNCCOc1ccc(NC(=O)c2ccc(F)cc2)cc1-c1c(C)ncnc1C [Compound 374, N-(3-(4,6-dimethylpyrimidin-5-yl)-4-(2-((2-methoxyethyl)amino)ethoxy)phenyl)-4-fluorobenzamide]	8.46
COCCNCCOc1ccc(NC(=O)c2c(F)cnn2C)cc1-c1c(C)ncnc1C [Compound 375, N-(3-(4,6-dimethylpyrimidin-5-yl)-4-(2-((2-methoxyethyl)amino)ethoxy)phenyl)-4-fluoro-1-methyl-1H-pyrazole-5-carboxamide]	7.88
COCCN(C)CCOc1ccc(NC(=O)c2ccccc2)cc1-c1c(C)ncnc1C [Compound 376, N-(3-(4,6-dimethylpyrimidin-5-yl)-4-(2-((2-methoxyethyl) (methyl)amino)ethoxy)phenyl)benzamide]	7.20
COCCN(C)CCOc1ccc(NC(=O)c2cccc(OC)c2)cc1-c1c(C)ncnc1C [Compound 377, N-(3-(4,6-dimethylpyrimidin-5-yl)-4-(2-((2-methoxyethyl)(methyl)amino)ethoxy)phenyl)-3-methoxybenzamide]	8.58
COCCN(C)CCOc1ccc(NC(=O)c2cccc(F)c2)cc1-c1c(C)ncnc1C [Compound 378, N-(3-(4,6-dimethylpyrimidin-5-yl)-4-(2-((2-methoxyethyl)(methyl)amino)ethoxy)phenyl)-3-fluorobenzamide]	7.90
COCCN(C)CCOc1ccc(NC(=O)c2ccc(F)cc2)cc1-c1c(C)ncnc1C [Compound 379, N-(3-(4,6-dimethylpyrimidin-5-yl)-4-(2-((2-methoxyethyl)(methyl)amino)ethoxy)phenyl)-4-fluorobenzamide]	8.08
COCCN(C)CCOc1ccc(NC(=O)c2c(F)cnn2C)cc1-c1c(C)ncnc1C [Compound 380, N-(3-(4,6-dimethylpyrimidin-5-yl)-4-(2-((2-methoxyethyl)(methyl)amino)ethoxy)phenyl)-4-fluoro-1-methyl-1H-pyrazole-5-carboxamide]	8.02
Cc1ncnc(C)c1-c1cc(NC(=O)c2ccccc2)ccc1OCCN1C[C@@H]2C[C@H]1CO2 [Compound 381, N-(4-(2-((1S,4S)-2-oxa-5-azabicyclo[2.2.1]heptan-5-yl)ethoxy)-3-(4,6-dimethylpyrimidin-5-yl)phenyl)benzamide]	8.26
Cc1ncnc(C)c1-c1cc(NC(=O)C2(F)CC2)ccc1OCCN1C[C@@H]2C[C@H]1CO2 [Compound 382, N-(4-(2-((1S,4S)-2-oxa-5-azabicyclo[2.2.1]heptan-5-yl)ethoxy)-3-(4,6-dimethylpyrimidin-5-yl)phenyl)-1-fluorocyclopropane-1-carboxamide]	8.06
Cc1ncnc(C)c1-c1cc(NC(=O)c2ccnn2C)ccc1OCCN1C[C@@H]2C[C@H]1CO2 [Compound 383, N-(4-(2-((1S,4S)-2-oxa-5-azabicyclo[2.2.1]heptan-5-yl)ethoxy)-3-(4,6-dimethylpyrimidin-5-yl)phenyl)-1-methyl-1H-pyrazole-5-carboxamide]	8.05
Cc1ncnc(C)c1-c1cc(NC(=O)c2ccccc2)ccc1OCCN1C[C@H]2C[C@H]2C1 [Compound 384, N-[4-[2-[(1R,5S)-3-azabicyclo[3.1.0]hexan-3-yl]ethoxy]-3-(4,6-dimethylpyrimidin-5-yl)phenyl]benzamide]	8.44
Cc1ncnc(C)c1-c1cc(NC(=O)C2CC2)ccc1OCCN1CC(F)C1 [Compound 386, N-[3-(4,6-Dimethylpyrimidin-5-yl)-4-[2-(3-fluoroazetidin-1-yl)ethoxy]phenyl]cyclopropanecarboxamide]	8.83
Cc1ncnc(C)c1-c1cc(NC(=O)c2ccccc2)ccc1OCCN1CC(F)C1 [Compound 387, N-[3-(4,6-dimethylpyrimidin-5-yl)-4-[2-(3-fluoroazetidin-1-yl)ethoxy]phenyl]benzamide]	7.88
Cc1ncnc(C)c1-c1cc(NC(=O)C2CC2)ccc1OCCN1CC(O)C1 [Compound 388, N-[3-(4,6-dimethylpyrimidin-5-yl)-4-[2-(3-hydroxyazetidin-1-yl)ethoxy]phenyl]cyclopropanecarboxamide]	7.86

Compound	pKi
Cc1ncnc(C)c1-c1cc(NC(=O)c2ccccc2)ccc1OCCN1CC(O)C1 [Compound 389, N-[3-(4,6-dimethylpyrimidin-5-yl)-4-[2-(3-hydroxyazetidin-1-yl)ethoxy]phenyl]benzamide]	7.95
Cc1ncnc(C)c1-c1cc(NC(=O)C2CC2)ccc1OCCN1CCOCC1 [Compound 390, N-[3-(4,6-dimethylpyrimidin-5-yl)-4-(2-morpholinoethoxy)phenyl]cyclopropanecarboxamide]	8.28
Cc1ncncc1-c1cc(NC(=O)C2CC2)ccc1OCCN1CCOCC1 [Compound 391, N-(3-(4-methylpyrimidin-5-yl)-4-(2-morpholinoethoxy)phenyl)cyclopropanecarboxamide]	7.60
Cc1ncnc(C)c1-c1cc(NC(=O)[C@@H]2C[C@@H]2F)ccc1OCCN1CCOCC1 [Compound 392, (1S,2S)—N-[3-(4,6-dimethylpyrimidin-5-yl)-4-(2-morpholinoethoxy)phenyl]-2-fluoro-cyclopropanecarboxamide]	7.82
Cc1ncoc1C(=O)Nc1ccc(OCCN2CCOCC2)c(-c2c(C)ncnc2C)c1 [Compound 393, N-(3-(4,6-dimethylpyrimidin-5-yl)-4-(2-morpholinoethoxy)phenyl)-4-methyloxazole-5-carboxamide]	7.95
Cc1ncnc(C)c1-c1cc(NC(=O)c2ccnn2C)ccc1OCCN1CCOCC1 [Compound 394, N-(3-(4,6-dimethylpyrimidin-5-yl)-4-(2-morpholinoethoxy)phenyl)-1-methyl-1H-pyrazole-5-carboxamide]	7.89
CCCC(=O)Nc1ccc(OC2CNC2)c(-c2c(C)ncnc2C)c1 [Compound 397, N-(4-(azetidin-3-yloxy)-3-(4,6-dimethylpyrimidin-5-yl)phenyl) butyramide]	8.07
Cc1ncnc(C)c1-c1cc(NC(=O)c2ccnn2C)ccc1OC1CNC1 [Compound 399, N-(4-(azetidin-3-yloxy)-3-(4,6-dimethylpyrimidin-5-yl)phenyl)-1-methyl-1H-pyrazole-5-carboxamide]	7.89
CCOC1CC1C(=O)Nc1ccc(OCCN2CCOCC2)c(-c2c(C)ncnc2C)c1 (stereo not shown) [Compound 401, N-(3-(4,6-dimethylpyrimidin-5-yl)-4-(2-morpholinoethoxy)phenyl)-2-ethoxycyclopropane-1-carboxamide]	7.51
Cc1ncnc(C)c1-c1cc(NC(=O)c2c(F)cnn2C)ccc1OC1CNC1 [Compound 402, N-(4-(azetidin-3-yloxy)-3-(4,6-dimethylpyrimidin-5-yl)phenyl)-4-fluoro-1-methyl-1H-pyrazole-5-carboxamide]	8.54
Cc1ncnc(C)c1-c1cc(NC(=O)C2CC2)ccc1O[C@@H]1CCNC1 [Compound 403, N-[3-(4,6-dimethylpyrimidin-5-yl)-4-[(3R)-pyrrolidin-3-yl]oxy-phenyl]cyclopropanecarboxamide]	7.60
Cc1ncnc(C)c1-c1cc(NC(=O)C2CC2)ccc1O[C@H]1CCNC1 [Compound 404, (S)—N-(3-(4,6-dimethylpyrimidin-5-yl)-4-(pyrrolidin-3-yloxy)phenyl)cyclopropanecarboxamide]	7.16
Cc1ncnc(C)c1-c1cc(NC(=O)C2CC2)ccc1OC[C@H]1CCN1 [Compound 405, N-[4-[[(2R)-azetidin-2-yl]methoxy]-3-(4,6-dimethylpyrimidin-5-yl)phenyl]cyclopropanecarboxamide]	7.28
Cc1ncnc(C)c1-c1cc(NC(=O)C2CC2)ccc1OC[C@@H]1CCN1 [Compound 406, (S)—N-(4-(azetidin-2-ylmethoxy)-3-(4,6-dimethylpyrimidin-5-yl)phenyl)cyclopropanecarboxamide]	7.24
Cc1ncnc(C)c1-c1cc(NC(=O)C2CC2)ccc1OC[C@@H]1CCCN1 [Compound 407, N-[3-(4,6-dimethylpyrimidin-5-yl)-4-[[(2S)-pyrrolidin-2-yl]methoxy]phenyl]cyclopropanecarboxamide]	6.77
Cc1ncnc(C)c1-c1cc(NC(=O)C2CC2)ccc1OC[C@H]1CCCN1 [Compound 408, (R)—N-(3-(4,6-dimethylpyrimidin-5-yl)-4-(pyrrolidin-2-ylmethoxy)phenyl)cyclopropanecarboxamide]	7.52
Cc1ncnc(C)c1-c1cc(NC(=O)[C@H]2C[C@H]2F)ccc1O[C@@H]1CCCNC1 [Compound 410, (1R,2R)—N-(3-(4,6-dimethylpyrimidin-5-yl)-4-(((R)-piperidin-3-yl)oxy)phenyl)-2-fluorocyclopropane-1-carboxamide]	7.43
Cc1ncnc(C)c1-c1cc(NC(=O)[C@@H]2C[C@@H]2F)ccc1O[C@@H]1CCCNC1 [Compound 411, (1S,2S)—N-(3-(4,6-dimethylpyrimidin-5-yl)-4-(((R)-piperidin-3-yl)oxy)phenyl)-2-fluorocyclopropane-1-carboxamide]	7.89
